Results on 9 compounds are retold here after PubChem BioAssay AID260 (DTP/NCI, 2004).

Structures are written as SMILES. Several values for one entry are separate records, joined by “and”; a condition that tells them apart may be missing. Equal entries are not always repeated. Toxic doses and inconclusive results are not listed.

For the assay, the system named is CD2F1 mice, intracerebral L1210 leukemia, survival T/C. Nature of the assay: NCI In Vivo Anticancer Drug Screen. Data for tumor model L1210 Leukemia (intracerebral) in CD2F1 (CDF1) mice. Particulars: higher = longer survival. Here is the method:
The antitumor activity of compounds was measured in mice bearing transplantable tumors. Survival or tumor size were measured and the results are expressed as the measurement made in the treated group (T) divided by the measurement made in the vehicle treated control group (C). The tumor model used in this assay is L1210 Leukemia (intracerebral) in CD2F1 (CDF1) mice

For the compound `Nc1ncn(C2OC(CO)C(O)C2O)c(=O)n1` (stereo not given), the T/C is, setting by setting: (endpoint: mean survival time, dose: 0.75 mg/kg/injection, schedule: Q01DX009 (ip), vehicle: saline) 116 % of control; (endpoint: mean survival time, dose: 1.5 mg/kg/injection, schedule: Q01DX009 (ip), vehicle: saline) 116 % of control; (endpoint: mean survival time, dose: 3.0 mg/kg/injection, schedule: Q01DX009 (ip), vehicle: saline) 120 % of control; (endpoint: median survival time, dose: 0.28 mg/kg/injection, schedule: Q03HX024 (ip), vehicle: saline) 100 % of control; (endpoint: median survival time, dose: 0.5 mg/kg/injection, schedule: Q01DX005 (ip), vehicle: water) 103 % of control; (endpoint: median survival time, dose: 0.59 mg/kg/injection, schedule: Q03HX024 (ip), vehicle: saline) 151 % of control. Further, the T/C is 103 % of control (endpoint: median survival time, dose: 1.0 mg/kg/injection, schedule: Q01DX005 (ip), vehicle: water); 261 % of control (endpoint: median survival time, dose: 1.17 mg/kg/injection, schedule: Q03HX024 (ip), vehicle: saline); 114 % of control (endpoint: median survival time, dose: 2.0 mg/kg/injection, schedule: Q01DX005 (ip), vehicle: water); 170 % of control (endpoint: median survival time, dose: 2.25 mg/kg/injection, schedule: Q03HX024 (ip), vehicle: saline); 293 % of control (endpoint: median survival time, dose: 2.34 mg/kg/injection, schedule: Q03HX024 (ip), vehicle: saline); 213 % of control (endpoint: median survival time, dose: 3.12 mg/kg/injection, schedule: Q01DX009 (ip), vehicle: saline). Also, the T/C is 113 % of control (endpoint: median survival time, dose: 4.5 mg/kg/injection, schedule: Q03HX024 (ip), vehicle: saline); 363 % of control (endpoint: median survival time, dose: 4.69 mg/kg/injection, schedule: Q03HX024 (ip), vehicle: saline); 173 % of control (endpoint: median survival time, dose: 6.0 mg/kg/injection, schedule: Q01DX009 (ip), vehicle: saline); 214 % of control (endpoint: median survival time, dose: 6.25 mg/kg/injection, schedule: Q01DX009 (ip), vehicle: saline); 98 % of control (endpoint: median survival time, dose: 8.0 mg/kg/injection, schedule: Q01DX005 (ip), vehicle: water); 681 % of control (endpoint: median survival time, dose: 9.38 mg/kg/injection, schedule: Q03HX024 (ip), vehicle: saline). Besides, the T/C is 102 % of control (endpoint: median survival time, dose: 12.0 mg/kg/injection, schedule: Q01DX009 (ip), vehicle: saline); 250 % of control and 284 % of control and 325 % of control (endpoint: median survival time, dose: 12.5 mg/kg/injection, schedule: Q01DX009 (ip), vehicle: saline); 681 % of control (endpoint: median survival time, dose: 18.75 mg/kg/injection, schedule: Q03HX024 (ip), vehicle: saline); 298 % of control and 300 % of control and 348 % of control (endpoint: median survival time, dose: 25.0 mg/kg/injection, schedule: Q01DX009 (ip), vehicle: saline); 290 % of control and 295 % of control and 334 % of control (endpoint: median survival time, dose: 50.0 mg/kg/injection, schedule: Q01DX009 (ip), vehicle: saline); 98 % of control (endpoint: median survival time, dose: 75.0 mg/kg/injection, schedule: Q03HX024 (ip), vehicle: saline). In addition, the T/C is 348 % of control and 378 % of control and 386 % of control (endpoint: median survival time, dose: 100.0 mg/kg/injection, schedule: Q01DX009 (ip), vehicle: saline); 151 % of control and 209 % of control (endpoint: median survival time, dose: 200.0 mg/kg/injection, schedule: Q01DX009 (ip), vehicle: saline); 181 % of control (endpoint: median survival time, dose: 400.0 mg/kg/injection, schedule: Q01DX009 (ip), vehicle: saline).
In the case of `C[C@]12C=CC(=O)C=C1CC[C@@H]1[C@@H]2CC[C@]2(C)OC(=O)CC[C@@H]12`, the T/C (endpoint: median survival time, dose: 8.0 mg/kg/injection, schedule: Q01DX009 (ip), vehicle: saline with Tween-80) is 95 % of control and 111 % of control; the T/C (endpoint: median survival time, dose: 16.0 mg/kg/injection, schedule: Q01DX009 (ip), vehicle: saline with Tween-80) is 98 % of control and 102 % of control; the T/C (endpoint: median survival time, dose: 32.0 mg/kg/injection, schedule: Q01DX009 (ip), vehicle: saline with Tween-80) is 101 % of control and 102 % of control; the T/C (endpoint: median survival time, dose: 64.0 mg/kg/injection, schedule: Q01DX009 (ip), vehicle: saline with Tween-80) was 93 % of control and 102 % of control; the T/C (endpoint: median survival time, dose: 128.0 mg/kg/injection, schedule: Q01DX009 (ip), vehicle: saline with Tween-80) is 90 % of control and 98 % of control; the T/C (endpoint: median survival time, dose: 256.0 mg/kg/injection, schedule: Q01DX009 (ip), vehicle: saline with Tween-80) is 90 % of control and 98 % of control.
On to `CCC(C)N(C)/N=N/c1nc[nH]c1C(N)=O` (stereo not given), for which the T/C by setting is: (endpoint: median survival time, dose: 16.0 mg/kg/injection, schedule: Q01DX005 (ip), vehicle: saline with Tween-80) 105 % of control; (endpoint: median survival time, dose: 32.0 mg/kg/injection, schedule: Q01DX005 (ip), vehicle: saline with Tween-80) 105 % of control; (endpoint: median survival time, dose: 64.0 mg/kg/injection, schedule: Q01DX005 (ip), vehicle: saline with Tween-80) 116 % of control; (endpoint: median survival time, dose: 128.0 mg/kg/injection, schedule: Q01DX005 (ip), vehicle: saline with Tween-80) 116 % of control.
On to `O=P1(NCCCl)OCCC(OO)N1CCCl` (stereo not given), for which the T/C (endpoint: median survival time, dose: 40.0 mg/kg/injection, schedule: Q01DX001 (ip), vehicle: Klucel (hydroxypropylcellulose) (HPC)) is 105 % of control; the T/C (endpoint: median survival time, dose: 80.0 mg/kg/injection, schedule: Q01DX001 (ip), vehicle: Klucel (hydroxypropylcellulose) (HPC)) is 111 % of control; the T/C (endpoint: median survival time, dose: 160.0 mg/kg/injection, schedule: Q01DX001 (ip), vehicle: Klucel (hydroxypropylcellulose) (HPC)) was 113 % of control; the T/C (endpoint: median survival time, dose: 320.0 mg/kg/injection, schedule: Q01DX001 (ip), vehicle: Klucel (hydroxypropylcellulose) (HPC)) is 91 % of control.
Consider `COc1ccc2cc1Oc1ccc(cc1)C[C@H]1c3cc(c(OC)cc3CCN1C)Oc1c(OC)c(OC)cc3c1[C@H](C2)N(C)CC3`, for which the T/C is, setting by setting: (endpoint: median survival time, dose: 50.0 mg/kg/injection, schedule: Q01DX005 (ip), vehicle: Klucel (hydroxypropylcellulose) (HPC)) 90 % of control and 91 % of control; (endpoint: median survival time, dose: 100.0 mg/kg/injection, schedule: Q01DX005 (ip), vehicle: Klucel (hydroxypropylcellulose) (HPC)) 95 % of control and 98 % of control; (endpoint: median survival time, dose: 200.0 mg/kg/injection, schedule: Q01DX005 (ip), vehicle: Klucel (hydroxypropylcellulose) (HPC)) 95 % of control and 104 % of control; (endpoint: median survival time, dose: 400.0 mg/kg/injection, schedule: Q01DX005 (ip), vehicle: Klucel (hydroxypropylcellulose) (HPC)) 101 % of control.
For `CS(C)=O`, the T/C reads like this: (endpoint: median survival time, dose: 1000.0 mg/kg/injection, schedule: Q01DX005 (ip), vehicle: saline) 101 % of control and 106 % of control; (endpoint: median survival time, dose: 1.5 grams/kg/injection, schedule: Q01DX009 (ip), vehicle: saline) 104 % of control; (endpoint: median survival time, dose: 2000.0 mg/kg/injection, schedule: Q01DX005 (ip), vehicle: saline) 98 % of control and 102 % of control; (endpoint: median survival time, dose: 3.0 grams/kg/injection, schedule: Q01DX009 (ip), vehicle: saline) 102 % of control; (endpoint: median survival time, dose: 4000.0 mg/kg/injection, schedule: Q01DX005 (ip), vehicle: saline) 98 % of control and 102 % of control; (endpoint: median survival time, dose: 6.0 grams/kg/injection, schedule: Q01DX009 (ip), vehicle: saline) 104 % of control and 107 % of control. Further, the T/C (endpoint: median survival time, dose: 8000.0 mg/kg/injection, schedule: Q01DX005 (ip), vehicle: saline) was 118 % of control and 107 % of control.
In the case of `N=C(N)SCc1c2ccccc2c(CSC(=N)N)c2ccccc12`, the T/C (endpoint: mean survival time, dose: 50.0 mg/kg/injection, schedule: Q01DX009 (ip), vehicle: saline) is 103 % of control; the T/C (endpoint: mean survival time, dose: 100.0 mg/kg/injection, schedule: Q01DX009 (ip), vehicle: saline) is 124 % of control; the T/C (endpoint: mean survival time, dose: 200.0 mg/kg/injection, schedule: Q01DX009 (ip), vehicle: saline) is 88 % of control; the T/C (endpoint: median survival time, dose: 2.5 mg/kg/injection, schedule: Q01DX005 (ip), vehicle: Klucel (hydroxypropylcellulose) (HPC)) is 93 % of control and 98 % of control; the T/C (endpoint: median survival time, dose: 5.0 mg/kg/injection, schedule: Q01DX005 (ip), vehicle: Klucel (hydroxypropylcellulose) (HPC)) is 97 % of control and 112 % of control; the T/C (endpoint: median survival time, dose: 10.0 mg/kg/injection, schedule: Q01DX005 (ip), vehicle: Klucel (hydroxypropylcellulose) (HPC)) was 103 % of control and 115 % of control. Further, the T/C (endpoint: median survival time, dose: 20.0 mg/kg/injection, schedule: Q01DX005 (ip), vehicle: Klucel (hydroxypropylcellulose) (HPC)) was 103 % of control and 112 % of control.
On to `NC(=O)CNC1=C(N2CC2)C(=O)C(NCC(N)=O)=C(N2CC2)C1=O`, for which the T/C is, setting by setting: (endpoint: mean survival time, dose: 2.5 mg/kg/injection, schedule: Q01DX009 (ip), vehicle: saline) 101 % of control and 116 % of control; (endpoint: mean survival time, dose: 5.0 mg/kg/injection, schedule: Q01DX009 (ip), vehicle: saline) 110 % of control and 113 % of control; (endpoint: mean survival time, dose: 10.0 mg/kg/injection, schedule: Q01DX009 (ip), vehicle: saline) 105 % of control and 116 % of control; (endpoint: mean survival time, dose: 15.0 mg/kg/injection, schedule: Q01DX009 (ip), vehicle: saline) 101 % of control and 113 % of control.
For the compound `CN(CO)c1nc(N(C)CO)nc(N(C)CO)n1`, the T/C reads like this: (endpoint: median survival time, dose: 3.12 mg/kg/injection, schedule: Q01DX009 (ip), vehicle: saline with Tween-80) 101 % of control; (endpoint: median survival time, dose: 6.25 mg/kg/injection, schedule: Q01DX009 (ip), vehicle: saline with Tween-80) 96 % of control; (endpoint: median survival time, dose: 12.5 mg/kg/injection, schedule: Q01DX009 (ip), vehicle: saline with Tween-80) 100 % of control; (endpoint: median survival time, dose: 25.0 mg/kg/injection, schedule: Q01DX009 (ip), vehicle: saline with Tween-80) 95 % of control; (endpoint: median survival time, dose: 50.0 mg/kg/injection, schedule: Q01DX009 (ip), vehicle: Klucel (hydroxypropylcellulose) (HPC)) 104 % of control and 109 % of control; (endpoint: median survival time, dose: 50.0 mg/kg/injection, schedule: Q01DX009 (ip), vehicle: saline with Tween-80) 104 % of control. Further, under “endpoint: median survival time, dose: 100.0 mg/kg/injection, schedule: Q01DX009 (ip), vehicle: Klucel (hydroxypropylcellulose) (HPC)”, the T/C is 119 % of control and 116 % of control.
